Values after ≈ are worked out from the molar mass of the structure shown. Like-named read-outs stand apart in the source and are kept apart here.
Key:
Assay type in all cases: physicochemical
[1] = Additional stability studies with antioxidants, chelator, hydrogen peroxide
Method: The addition of antioxidants such as ascorbic acid and sodium bisulfite and the chelator EDTA were evaluated with the drug at pH 3 (citrate buffer) and pH 7 (phosphate buffer). Samples in phosphate buffer were maintained at 26°C while the samples in citrate buffer were kept at 56°C. All three agents were used at a concentration of 0.05% w/v. Aliquots were withdrawn on a regular basis and pH and drug concentration were monitored. Piperlongumine stability was also examined after the addition of 1.5% w/v hydrogen peroxide in pH 3 citrate buffer at room temperature.

[2] = Solubility studies (excess drug, agitation at least 24 h, HPLC)
[3] = Photo-stability (UV sunlamps, 165 min); conditions: for Photo-degradation: UV exposure
Method: Photo-stability was examined by preparing four groups of samples, each containing a triplicate sample and one reference (protected from light). These groups covered high and low drug concentrations in the following compositions:
• 150 μg/ml of drug in 100% acetonitrile • 150 μg/ml of drug in 15:85 acetonitrile: water • 30 μg/ml of drug in 100% acetonitrile • 30 μg/ml of drug in 15:85 acetonitrile: water
Each sample was prepared in a transparent glass vial and closed without any entrapped air. A reference sample was utilized for each group by covering one of the vials with aluminum foil to protect it from the light exposure. All vials were exposed for 165 min using Sun 340 sunlamps yielding UV emission between 295 and 390 nm to include UVA and UVB wavelengths. Samples were placed in an area where the UV intensity was measured to be 1.57 mw/cm^2. After the exposure time, samples were analyzed using the HPLC method described previously.

[4] = Solubility studies (excess drug, agitation at least 24 h, HPLC); remark: listed apart in the source
Method: Solubility of piperlongumine was determined in purified water and the following cosolvent and surfactant systems: 5, 15, 30% (v/v) acetonitrile; 5, 15, 30, 50, 100% (v/v) of polyethylene glycol 400 (PEG 400), ethanol, glycerin and propylene glycol; 3, 7, 10% (w/v) of Tween 80; 2.5, 5, 10% (w/v) of Cremophor Rh 40; and a solution composition of 10% ethanol: 40% PEG 400 (w/v). Additionally, the complexing agents, sulfobutyl ether β-cyclodextrin sodium salt and hydroxyl-propyl-β-cyclodextrin, were examined at concentrations of 5, 10, 20, 40% (w/v).
An excess quantity of raw drug crystals were placed in a known volume of each medium in closed, light protected glass vials and allowed to agitate for at least 24 hours at ambient temperature. Samples were visually inspected to ensure that solid drug was still in excess and then filtered through a 0.2 μm PTFE filter. The filtrate was assayed via the previously described HPLC method and the concentration of piperlongumine in solution was determined.

[5] = n-octanol/water partitioning study; conditions: room temperature, read-out: Partition coefficient (log P)
Method: Piperlongumine crystals were placed in a small glass bottle containing equal volumes of n-octanol and water. The bottle was shaken for 24 hours, after which time, the bottle was allowed to equilibrate without mixing for an additional 24 hours to ensure full separation between the n-octanol and water layers. A sample from each layer was carefully withdrawn and analyzed by HPLC.

[6] = citrate, pH 3, 26°C, hydrogen peroxide 1.5% w/v
[7] = citrate, pH 3, 56°C, EDTA 0.05% w/v
[8] = citrate, pH 3, 56°C, ascorbic acid 0.05% w/v
[9] = citrate, pH 3, 56°C, no additional substance
[10] = citrate, pH 3, 56°C, sodium bisulfite 0.05% w/v
[11] = phosphate, pH 7, 26°C, EDTA 0.05% w/v
[12] = phosphate, pH 7, 26°C, ascorbic acid 0.05% w/v
[13] = phosphate, pH 7, 26°C, no additional substance
[14] = phosphate, pH 7, 26°C, sodium bisulfite 0.05% w/v

COc1cc(/C=C/C(=O)N2CCC=CC2=O)cc(OC)c1OC [piperlongumine, 1-[(2E)-3-(3,4,5-trimethoxyphenyl)prop-2-enoyl]-1,2,5,6-tetrahydropyridin-2-one]
Effect on the stability profile ([1]; addition of ascorbic acid and EDTA, pH 7 phosphate buffer, vs drug alone): did not have a significant effect
Effect on degradation ([1]; addition of ascorbic acid, pH 3): did not readily affect the degradation
Effect on degradation ([1]; addition of hydrogen peroxide (oxidizing agent)): does significantly increase degradation
Effect on degradation rate ([1]; addition of sodium bisulfite, pH 3 citrate buffer, 56°C, vs drug alone): did not affect the degradation rate
Time of degradation ([1]; addition of sodium bisulfite, pH 7): within a few minutes
T90 [1, 6]: 0.3 weeks
k values [1, 6]: 0.3369 weeks^-1
T90 [1, 7]: 0.3 weeks
k values [1, 7]: 0.3266 weeks^-1
T90 [1, 8]: 0.3 weeks
k values [1, 8]: 0.3706 weeks^-1
T90 [1, 9]: 0.3 weeks
k values [1, 9]: 0.3107 weeks^-1
T90 [1, 10]: 0.3 weeks
k values [1, 10]: 0.3860 weeks^-1
T90 [1, 11]: 1.9 weeks
k values [1, 11]: 0.0559 weeks^-1
T90 [1, 12]: 2.3 weeks
k values [1, 12]: 0.0459 weeks^-1
T90 [1, 13]: 2.1 weeks
k values [1, 13]: 0.0494 weeks^-1
T90 [1, 14]: 0.0 weeks
k values [1, 14]: 3069.8950 weeks^-1
Water solubility as a function of pH [2]: does not change as a function of pH
Average % of drug remaining ± SD ([3]; 30 μg/ml, acetonitrile:water 15:85, UV 165 min): 79.0 ± 0.1%
Average % of drug remaining ± SD ([3]; 30 μg/ml, acetonitrile:water 100:00, UV 165 min): 39.5 ± 0.03%
Average % of drug remaining ± SD ([3]; 150 μg/ml, acetonitrile:water 15:85, UV 165 min): 82.3 ± 0.6%
Average % of drug remaining ± SD ([3]; 150 μg/ml, acetonitrile:water 100:00, UV 165 min): 44.5 ± 0.2%
Photo-degradation ([3]; 15:85 acetonitrile: water): approximately 20%
Concentration remaining of the initial concentration ([3]; light protected control samples, after exposure duration): 100%
Photo-degradation ([3]; pure acetonitrile): 60%
Photo-degradation upon exposure to an ultraviolet light source ([3]; qualitative): marked photo-degradation
solubility ([4]; 10% (w/v) Cremophor Rh 40, aqueous with cosolvent or surfactant or cyclodextrin, thermodynamic from solid, 10% (w/v) Cremophore Rh 40, read-out: Solubility): ~550 µg/mL (≈ 1.73 mM)
solubility ([4]; 10% (w/v) Tween 80, aqueous with cosolvent or surfactant or cyclodextrin, thermodynamic from solid, 10% Tween 80, read-out: Solubility): ~700 µg/mL (≈ 2.21 mM)
solubility ([4]; 10% ethanol: 40% PEG 400 (w/v), aqueous with cosolvent or surfactant or cyclodextrin, thermodynamic from solid, read-out: Solubility): ~1700 µg/mL (≈ 5.36 mM)
solubility ([4]; 10% ethanol: 40% PEG 400 (w/v), read-out: Solubility): 1000 µg/mL (≈ 3.15 mM)
solubility ([4]; 20% (w/v) hydroxypropyl-β-cyclodextrin, aqueous with cosolvent or surfactant or cyclodextrin, thermodynamic from solid, read-out: Solubility): ~1000 µg/mL (≈ 3.15 mM)
solubility ([4]; 20% (w/v) hydroxypropyl-β-cyclodextrin, read-out: Solubility): 1000 µg/mL (≈ 3.15 mM)
solubility ([4]; 20% (w/v) sulfobutyl ether β-cyclodextrin, aqueous with cosolvent or surfactant or cyclodextrin, thermodynamic from solid, read-out: Solubility): ~1000 µg/mL (≈ 3.15 mM)
solubility ([4]; 30% (v/v) acetonitrile, aqueous with cosolvent or surfactant or cyclodextrin, thermodynamic from solid, 30% acetonitrile, read-out: Solubility): 1600 µg/mL (≈ 5.04 mM)
Fold improvement in solubility ([4]; 30% acetonitrile vs water): 63 fold
solubility ([4]; 50% (v/v) PEG 400, aqueous with cosolvent or surfactant or cyclodextrin, thermodynamic from solid, 50% PEG 400, read-out: Solubility): ~1100 µg/mL (≈ 3.47 mM)
solubility ([4]; 50% (v/v) ethanol, aqueous with cosolvent or surfactant or cyclodextrin, thermodynamic from solid, 50% ethanol, read-out: Solubility): ~2300 µg/mL (≈ 7.25 mM)
solubility ([4]; 100% PEG 400, organic solvent or mixture, thermodynamic from solid, pure PEG 400, read-out: Solubility): ~22000 µg/mL (≈ 69.3 mM)
solubility ([4]; 100% ethanol, organic solvent or mixture, thermodynamic from solid, pure ethanol, read-out: Solubility): ~11000 µg/mL (≈ 34.7 mM)
Concentrations afforded ([4]; cosolvents and cyclodextrins): ≥ 1000 µg/mL
solubility ([4]; purified water, ambient temperature, read-out: Solubility in water (intrinsic solubility)): ~26 µg/mL (≈ 0.0819 mM)
solubility ([4]; thermodynamic from solid, purified water, ambient temperature, read-out: Solubility in water (intrinsic solubility)): 26 ± 2.9 µg/mL (≈ 0.0819 mM)
logP at 24 h [5]: 2.37 ± 0.12

From PMC4794209, “Preformulation Studies on Piperlongumine” (PLoS ONE, 2016)
